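Growth conditions: 96-well plates. Treatment: test compound, 48 hours, 5 concentrations. Analysis: linear interpolation between bracketing concentrations; unreached endpoints set to highest concentration. GI50 is the concentration that inhibits growth by half. At the TGI there is no net growth.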
Tests used:
Assay in all cases: NCI tumour cell line growth inhibition, 48 h
COLO 205 colon = system: COLO 205 colon
HOP-92 NSCLC = system: HOP-92 NSCLC
KM12 colon = system: KM12 colon
OVCAR-3 ovarian = system: OVCAR-3 ovarian
PC-3 prostate = system: PC-3 prostate
SNB-75 CNS = system: SNB-75 CNS
NCI-H226 lung = system: NCI-H226 lung
RXF 393 renal = system: RXF 393 renal
UACC-62 melanoma = system: UACC-62 melanoma
UACC-257 melanoma = system: UACC-257 melanoma

SMILES	GI50 (COLO 205 colon) [µM]	TGI (COLO 205 colon) [µM]	GI50 (HOP-92 NSCLC) [µM]	TGI (HOP-92 NSCLC) [µM]	GI50 (KM12 colon) [µM]	TGI (KM12 colon) [µM]	GI50 (OVCAR-3 ovarian) [µM]	TGI (OVCAR-3 ovarian) [µM]	GI50 (PC-3 prostate) [µM]	TGI (PC-3 prostate) [µM]	GI50 (SNB-75 CNS) [µM]	TGI (SNB-75 CNS) [µM]	TGI (NCI-H226 lung) [µM]	TGI (RXF 393 renal) [µM]	TGI (UACC-62 melanoma) [µM]	TGI (UACC-257 melanoma) [µM]	GI50 (NCI-H226 lung) [µM]	GI50 (UACC-257 melanoma) [µM]	GI50 (UACC-62 melanoma) [µM]
N#Cc1c2ccccc2c2nnc3ccccc3n12	9.32	> 100	> 100	> 100	48.7	> 100	59.7	> 100	63.5	> 100	28.3	> 100							
O=C(O)CNCCc1ccccc1		> 100		> 100		> 100		> 100		> 100		> 100	> 100	> 100	> 100				
CC(=O)N(CCN1C(=O)c2ccccc2C1=O)CCN1C(=O)c2ccccc2C1=O		> 100		> 100		> 100		> 100				> 100		> 100	> 100	> 100			
OCCCc1cnco1		> 100		> 100		> 100		> 100				> 100	> 100	> 100	> 100	> 100			
CC(=O)Oc1c(Br)ccc2cc(C(Br)Br)c(C(=O)c3ccccc3)nc12		52.7				37.1						46	40.2	33.8	39.4	8.87			
CS(=N)(=O)CCC(N)P(=O)(O)O (stereo not drawn)		> 100		> 100		> 100		> 100		> 100			> 100	> 100	> 100	> 100			
CC(=O)SC(SC(C)=O)SC(C)=O		82.9				> 100		> 100				> 100	> 100	> 100	> 100	> 100			
Fc1ccc(C2SCc3nc4ccccc4n32)cc1F (stereo not drawn)		90.3				> 100		> 100				56.9		80	> 100	> 100			
CCN(CC)CC(O)COc1c(Br)c(Br)c(Br)c2c1OC(C)(C)C2 (stereo not drawn)	1.98	5.14	1.35	6.05	3.69	13.8	3.47	16.3	2.81	11.5	5.31	19.4	40.9		3.47	4.87	13.5	2.67	1.9
O=[N+]([O-])c1ccc(/C(Cl)=C/c2ccc(/C=C(\Cl)c3ccc([N+](=O)[O-])cc3[N+](=O)[O-])cc2)c([N+](=O)[O-])c1		> 100		> 100								> 100	> 100	> 100	> 100	> 100			
CCCCN(CCCC)CC(C(=O)Nc1ccc([N+](=O)[O-])cc1[N+](=O)[O-])/C(C)=N\NC(=O)C[N+](C)(C)C (stereo not drawn)		> 100		> 100		> 100		> 100				> 100	> 100	> 100	> 100	> 100			

Reference: PubChem BioAssay (NCI)
